Reference: patent US20260232681A1, “CRYSTALLINE FORMS OF N-[4-[4-(4-MORPHOLINYL)-7H-PYRROLO[2,3-D]PYRIMIDIN-6- YL]PHENYL]-4-[[3(R)-[(L-OXO-2-PROPEN-L-YL)AMINO]-L-PIPERIDINYL]METHYL]-2-PYRIDINECARBOXAMIDE AS A COVALENT INHIBITOR OF MENIN-MLL INTERACTION” (BIOMEA FUSION, INC., priority 2023, published 2026)
Entries after “also recorded” stand apart in the source; their conditions may differ.

How the values were obtained:
[1] = system: streptozotocin (STZ) induced type II diabetes in Wistar Han rats; assay: Glycemic control in streptozotocin-induced diabetic rats (Examples 103, 105); assay type: in vivo, rat
Description: The present example provides the ability of Compound 10 to restore glycemic control to streptozotocin (STZ) induced type II diabetes in Wistar Han rats. Fahmy et al., 2017, World J. Pharm. Med. Res. 3(3):37-39.
Control and test compounds were stored at 4° C. and prepared weekly as needed. The vehicle for positive control pioglitazone was 0.25% carboxymethylcellulose and 1% Tween® 80 in reverse osmosis deionized water. The vehicle for Compound 10 was 10% DMSO, 10% Solutol HS 15, and 80% (10% hydroxypropyl-β-cyclodextrin in 50 mM citrate buffer at pH 3.0). The vehicle for streptozotocin pretreatment was 0.1 M sodium citrate pH 4.5.
On Day −3, twenty-four Wistar Han rats (plus eight spare Wistar Han rats) were measured for body weight and non-fasting glucose. Starting on Day −42, D12451 Research Diet was provided ad libitum throughout the study, except during designated procedures, as was water. In order to minimize the effects of stress on blood glucose and body, all animals including the spares received daily sham doses with phosphate buffered saline pH 7.2 (dose volume 5 mL/kg) via gavage beginning on Study Day −5 to Day −1. 20% Glucose in drinking water (200 g/L) was provided ad libitum for 24 hr after streptozotocin injection on Day −14 and Day −7.
On Days −14 and −7, streptozotocin was administered at 30 mg/kg/day QD intraperitoneally. Starting on Day 1, control and test compound were administered on the following schedule.
On Days −7 to −1 and on Days 1, 8, and 14 non-fasting blood glucose was measured. On Day 15, an oral glucose tolerance test was administered. The animals were weighed and the animals were placed in clean cages without food. Access to water was provided throughout the procedure. The animals were fasted for five hours and a blood glucose measurement was determined. The animals were dosed via oral gavage with 2 g/kg glucose (10 mL/kg). Blood glucose was determined via venipuncture. The second drop of blood from the animal was placed on a hand-held glucometer (Abbott Alpha Trak) at the following times relative to the glucose dose: zero (just prior to glucose dose), 15, 30, 60, 90, and 120 min. Following the final blood glucose measurement, food was returned to the cages. On Day 17, 4-hour fasting glucose was measured. Serum samples were used to measure insulin by ELISA. Analysis was performed in one to three days of each collection. On Day 17, terminal blood collection was obtained at about 8 mL per animal and measured for blood glucose.
ZDF rats were treated daily with Compound 10, vehicle, or pioglitazone for sixteen days and monitored for an additional two weeks post-treatment until Day 29. STZ rat models were induced through pre-treatment of animals on a high-fat diet with low doses of streptozotocin at Day −14 and Day −7 prior to starting treatment at Day Zero until Day 16. ZDF and STZ rats were monitored for fasting blood glucose levels, oral glucose tolerance test (OGTT), insulin and C-peptide levels, HOMA-IR (Homeostatic Model Assessment of Insulin Resistance), blood lipemic levels, and body weight according to the schematic for each model below. ZDF rats were analyzed for indicated readouts for fifteen days post-treatment for OGTT at Day 29, and serum insulin and C-peptide at Day 31.
STZ Rat Model—three treatment groups 1. Vehicle; 2. Compound 10 at 175 mg/kg; and 3. Pioglitazone at 30 mg/kg; n=10 per group. […] Rats were monitored for the following parameters through dosing—body weight, blood glucose levels, and OGTT.

[2] = system: Human ex vivo PDX tissue models harboring KRAS mutations; assay: Ex vivo KRAS-mutated PDX tissue viability (CellTiter Glo, six days); assay type: cell-based; conditions: six-day treatment, all samples
Description: MOLM-13 and MiaPaCa-2 cells were incubated with Compound A for twenty-four hours and were analyzed by RNA-seq on an Illumina NextSeq 550 platform. […] Cell viability was measured using CellTiterGlo. Human ex vivo PDX tissue models harboring KRAS mutations were cultured with Compound A and clinical reversible menin inhibitors for six days. Cell viability was measured using CellTiter Glo.

[3] = system: Zucker Diabetic Fatty (ZDF) rats; assay: Glycemic control and HbA1c in ZDF rats, 28-day dosing plus 28-day washout (Examples 104, 106); assay type: in vivo
Description: Rats were treated daily with Compound 10, liraglutide, or vehicle for twnety-eight days and monitored for an additional twenty-eight days post-treatment.
Zucker Diabetic Fatty (ZDF) rats were dosed daily with Compound 10, liraglutide, or vehicle for twenty-eight days (n=10 per group) and monitored for an additional twenty-eight days post last dose. Fasting blood glucose, insulin, C-peptide levels, HbA1c, oral glucose tolerance test (OGTT), and body weight were monitored during and post-treatment.
ZDF Rat Model—five treatment groups 1. Vehicle; 2. Compound 10 at 40 mg/kg; 3. Compound 10 at 85 mg/kg; 4. Compound 10 at 170 mg/kg; and 5. Liraglutide at 0.2 mg/kg; n=10 per group. Group 2 dose (40 mg/kg) was increased to 200 mg/kg on Day 17 for rest of the dosing phase. Daily dosing zero to twenty-eight days days QD→drug wash out twenty-eight to fifty-six days. Rats were monitored for the following parameters through dosing and wash out phases—body weight, fasting blood sugar, blood insulin, C-peptide, OGTT, and HbA1C.

Which blood lipemic levels ([1]; STZ rats) does the source give for `C=CC(=O)N[C@@H]1CCCN(Cc2ccnc(C(=O)Nc3ccc(-c4cc5c(N6CCOCC6)ncnc5[nH]4)cc3)c2)C1` [Compound A, N-[4-[4-(4-morpholinyl)-7H-pyrrolo[2,3-d]pyrimidin-6-yl]phenyl]-4-[[3(R)-[(1-oxo-2-propen-1-yl)amino]-1-piperidinyl]methyl]-2-pyridinecarboxamide] here?
Its blood lipemic levels is “Significant reductions”.

What about the body weight ([1]; STZ rats) of the same compound?
Its body weight is “Significant reductions”.

And the “oral glucose tolerance test, glucose control” value ([1]; STZ rats, after fifteen days of treatment)?
The value was “significant glucose control”.

What about the “insulin in the non-fasting state” value ([1]; STZ-induced diabetes model) of the same compound?
The value was “significant reduction”.

What about the non-fasting glucose ([1]; STZ-induced diabetes model, compared to vehicle and control) of the same compound?
The non-fasting glucose was “sharp reduction”.

What about the “growth of ex vivo preclinical models” value [2] of the same compound?
The value was “Complete abrogation of growth”.

And the “glycemic control by oral glucose tolerance test (OGTT)” value ([3]; Day 25, versus vehicle)?
The value was “improved glycemic control”.

And the tolerability ([3]; daily for 28 days)?
Its tolerability is “tolerated Compound 10 well”.

And the “HbA1c at all doses tested” value ([3]; effects lasting fifteen days after the last dose)?
The value was “significant reductions”.

And the “4-hour fasting blood glucose” value ([3]; high-dose arm, up to Day 29, listed as Compound 10)?
Its value is “strong reduction; also recorded: sustained and significant reduction”.
